Source: EP2878592B1, “SYNTHESIS OF AMIDE DERIVATIVES OF SOME NONSTEROIDAL ANTIINFLAMMATORY DRUGS AS POTENTIAL PRO-DRUGS” (Kücükgüzel, Ilkay, priority 2013, dated 2015)

Tests used:
[1] = Partition coefficient (log P) study, chloroform / buffer, HPLC; format: physicochemical; details: 37°C, 24 hours
Procedure: 20 mg of amide compound is dissolved in 20 ml of chloroform. 10 mL of this mixture is drawn out (divided into two). This 10 ml of mixture is added to 20 ml with pH 1.2 buffer solution. Likewise the other 10 ml of mixture is added to 20 ml with pH 6.8 buffer solution. The tubes placed in a 37°C incubator are mixed for 24 hours.
After 24 hours the chloroform phase was removed and transferred to separate tubes. The chloroform is evaporated. After evaporation of chloroform, 10 mL of ACN is added and thoroughly mixed. 0.1 ml of the sample is taken out of the mixture with ACN and this sample is added to 10 ml with the mobile phase (S1, S2, S3) (Cn=1ug/ml)
The standard samples used in this study were prepared according to the method of preparation of standard samples given above.
• HPLC Column Type: ACE C18 reverse phase. • Flow Rate: 1 ml/min. • Wavelength: 210 nm

[2] = compared with ibuprofen, equimolar doses; cited from earlier work
[3] = compared with the ibuprofen molecule; cited from earlier work
[4] = pH 1.2 buffer solution / chloroform
[5] = pH 6.8 buffer solution / chloroform

Log P (Experimental result) [1, 4] | Log P (Experimental result) [1, 5] | Compound | effect in relieving edema and in lowering fever [2] | gastrointestinal and acute toxicities [3]
-0.05 | +0.05 | C[C@H](C(=O)NC(CO)(CO)CO)c1cccc(C(=O)c2ccccc2)c1 [Compound 1b, (+)-(2S)-2-(3-Benzoylphenyl)-N-[1,3-dihydroxy-2-(hydroxymethyl)propan-2-yl]propanamide] |  | 
-0.12 | -0.41 | CC(C)Cc1ccc(C(C)C(=O)NC(CO)(CO)CO)cc1 (centres unmarked) [Compound 2b, N-[1,3-dihydroxy-2-(hydroxmethyl)propan-2-yl]-2-(4-isobutylphenyl)propanamide] |  | 
-0.14 | -0.95 | CC(C(=O)NC(CO)(CO)CO)c1ccc(-c2ccccc2)c(F)c1 (centres unmarked) [Compound 3b, N-[1,3-Dihydroxy-2-(hydroxymethyl)propan-2-yl]-2-(2-fluorobiphenyl-4-yl)propanamide] |  | 
 |  | COc1ccccc1OC(=O)C(C)c1ccc(CC(C)C)cc1 (centres unmarked) [guiacol ester of ibuprofen] | same effect | much lower
